PubChem BioAssay (NCI)
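Following 48 hours of exposure in 96-well plates, responses at five concentrations were used to interpolate endpoints linearly. At the GI50, growth is halved. TGI denotes the concentration required for complete inhibition of growth.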

Key:
Test in all cases: NCI-60 cell line screen, 48 h
OVCAR-4 ovarian = system: OVCAR-4 ovarian
U251 CNS = system: U251 CNS
SW-620 colon = system: SW-620 colon
IGROV1 ovarian = system: IGROV1 ovarian
SR leukemia = system: SR leukemia
HCT-15 colon = system: HCT-15 colon
HOP-62 NSCLC = system: HOP-62 NSCLC
SNB-75 CNS = system: SNB-75 CNS
NCI-H23 lung = system: NCI-H23 lung
NCI-H226 lung = system: NCI-H226 lung

SMILES | TGI (OVCAR-4 ovarian) | TGI (U251 CNS) | TGI (SW-620 colon) | TGI (IGROV1 ovarian) | TGI (SR leukemia) | TGI (HCT-15 colon) | TGI (HOP-62 NSCLC) | TGI (SNB-75 CNS) | TGI (NCI-H23 lung) | TGI (NCI-H226 lung) | GI50 (OVCAR-4 ovarian) | GI50 (NCI-H226 lung) | GI50 (U251 CNS) | GI50 (SW-620 colon) | GI50 (IGROV1 ovarian) | GI50 (SR leukemia) | GI50 (HCT-15 colon) | GI50 (HOP-62 NSCLC) | GI50 (SNB-75 CNS) | GI50 (NCI-H23 lung)
C=CCNC(=S)OCCCCCCCCCC | 30.5 µM | 30.8 µM | 32.7 µM | 35.7 µM | 78.3 µM | 29.4 µM | 36.3 µM | 49.8 µM | 37.8 µM | – | – | – | – | – | – | – | – | – | – | –
O=C1C=C(Nc2nc(C(=O)O)cc(=O)[nH]2)c2ccccc2C1=O | > 100 µM | > 100 µM | > 100 µM | > 100 µM | > 100 µM | > 100 µM | > 100 µM | > 100 µM | > 100 µM | > 100 µM | – | – | – | – | – | – | – | – | – | –
O=C1c2ccccc2C2(O)Oc3cccc(O)c3C12O (configuration not stated) | > 100 µM | > 100 µM | > 100 µM | > 100 µM | > 100 µM | > 100 µM | > 100 µM | > 100 µM | > 100 µM | > 100 µM | – | – | – | – | – | – | – | – | – | –
CCCCc1nc2cc(/C=C/C(=O)NO)ccc2n1CCN(CC)CC | > 54.2 µM | 1.43 µM | 3.32 µM | 5.67 µM | > 100 µM | 22.4 µM | 11.6 µM | 25.4 µM | 7.72 µM | 3.45 µM | 0.345 µM | 0.608 µM | 0.28 µM | 0.228 µM | 0.733 µM | 0.605 µM | 1.47 µM | 0.322 µM | 0.227 µM | 0.452 µM
COC(=O)[C@H](Cc1ccccc1)NC(=O)[C@@H](OC)[C@@H]1Cc2cc3cc(OC4CC(OC5CC(O)C(O)C(C)O5)C(O)C(C)O4)c(C)c(O)c3c(O)c2C(=O)[C@H]1OC1CC(OC2CC(OC3CC(C)(O)C(O)C(C)O3)C(O)C(C)O2)C(O)C(C)O1 (some centres not stated) | > 14.3 µM | > 14.3 µM | > 14.3 µM | > 14.3 µM | 1.04 µM | > 14.3 µM | 11.4 µM | 0.0575 µM | 0.0821 µM | 0.0741 µM | 0.0277 µM | 0.018 µM | 0.0257 µM | 0.0196 µM | 0.00902 µM | 0.00736 µM | 0.0725 µM | 0.0147 µM | 0.0186 µM | 0.0106 µM
Cc1ccc([Se][Se]c2ccc(C)cc2)cc1 | 36.9 µM | 17.5 µM | 51.6 µM | > 100 µM | – | > 100 µM | > 100 µM | 42.2 µM | > 100 µM | > 100 µM | – | – | – | – | – | – | – | – | – | –
COC(=O)C(=O)C(C#N)c1ccc(Cl)c(Cl)c1 (configuration not stated) | – | > 100 µM | > 100 µM | > 100 µM | > 100 µM | > 100 µM | – | > 100 µM | > 100 µM | > 100 µM | – | – | – | – | – | – | – | – | – | –
CC(C)(C)n1cc(-c2ccnc(NCCNS(=O)(=O)c3cccc4ccccc34)c2)c(-c2cccc(F)c2)n1 | 53.7 µM | 33.4 µM | 42.3 µM | 64.3 µM | > 100 µM | 24.9 µM | 46.3 µM | – | 59.1 µM | 43.4 µM | 14.6 µM | 12.2 µM | 12.4 µM | 16.6 µM | 18.6 µM | 9.27 µM | 6 µM | 17.2 µM | – | 14.9 µM
COc1cc(C(CC(OC)OC)=C(C#N)C#N)cc(OC)c1OC | – | 91.4 µM | > 100 µM | > 100 µM | > 100 µM | > 100 µM | – | 82.2 µM | > 100 µM | 13.9 µM | – | – | – | – | – | – | – | – | – | –
CN1c2ccccc2C(C)(C)C12CC(c1ccc(Cl)c(S(=O)(=O)N3CCCC3)c1)=NO2 (configuration not stated) | > 100 µM | > 100 µM | – | > 100 µM | – | > 100 µM | > 100 µM | > 100 µM | > 100 µM | > 100 µM | > 100 µM | > 100 µM | 0.531 µM | – | > 100 µM | – | 0.118 µM | 83.7 µM | > 100 µM | > 100 µM
C=C(C(=O)OC)[C@@H]1C[C@@H](O)[C@]2(C)CC/C=C(\C)CCC[C@H](C)[C@H](O)C1O2 | > 100 µM | > 100 µM | > 100 µM | 73.5 µM | – | > 100 µM | > 100 µM | > 100 µM | > 100 µM | > 100 µM | 78.8 µM | 86.7 µM | 51.4 µM | 42.2 µM | 22.7 µM | – | 59 µM | > 100 µM | > 100 µM | 80.6 µM
Oc1ccccc1C=Nc1ccccc1N=Cc1ccccc1O | – | > 100 µM | > 100 µM | > 100 µM | > 100 µM | > 100 µM | > 100 µM | – | > 100 µM | > 100 µM | – | – | – | – | – | – | – | – | – | –
Cc1nn(C)c(=S)n(C)c1=O | > 100 µM | 30.1 µM | > 100 µM | 53.2 µM | – | > 100 µM | 11.4 µM | 2.73 µM | 10.6 µM | > 100 µM | – | – | – | – | – | – | – | – | – | –
O=C1CCC2CCOc3ccc(O)c1c32 (configuration not stated) | > 100 µM | > 100 µM | – | > 100 µM | > 100 µM | > 100 µM | > 100 µM | > 100 µM | > 100 µM | > 100 µM | – | – | – | – | – | – | – | – | – | –
C1C[OH+]CC[OH+]CC[OH+]CC[OH+]CC[OH+]CC[OH+]1.[Cl-].[Ta+5] | > 100 µM | > 100 µM | > 100 µM | > 100 µM | – | > 100 µM | > 100 µM | > 100 µM | > 100 µM | 30.5 µM | > 100 µM | 13.3 µM | > 100 µM | > 100 µM | > 100 µM | – | > 100 µM | > 100 µM | 23.8 µM | > 100 µM
c1ccc2c(c1)ccc1c3ccccc3ccc21 | > 50 µM | > 50 µM | > 50 µM | > 50 µM | – | > 50 µM | > 50 µM | > 50 µM | > 50 µM | > 50 µM | > 50 µM | > 50 µM | > 50 µM | > 50 µM | > 50 µM | – | > 50 µM | > 50 µM | > 50 µM | > 50 µM
COc1ccc(Nc2c[nH]c(=O)[nH]c2=O)cc1 | > 100 µM | > 100 µM | > 100 µM | > 100 µM | – | > 100 µM | > 100 µM | > 100 µM | > 100 µM | > 100 µM | – | – | – | – | – | – | – | – | – | –
